Ka and Activity data for two compounds are collected here from ChEMBL document CHEMBL1156087, “Antioxidant reactivity toward nitroxide probes anchored into human serum albumin. A new model for studying antioxidant repairing capacity of protein radicals” (Bioorg Med Chem Lett, 2009).

Holding throughout (details): isolated protein
For data set [1], the target named is T1, Albumin (Homo sapiens, UniProt P02768). In words: Binding affinity to human serum albumin by tryptophan fluorescence quenching method. The class given is ADME.
Data set [2] deals with T1, Albumin. Put plainly: Binding affinity to human serum albumin by Benesi-Hildebrand method. In kind it is ADME.
Data set [3] has as its target T1, Albumin. Put plainly: Binding affinity to 130 uM human serum albumin assessed as fluorescence distribution at 2.5 uM. The class given is ADME.
Data set [4] concerns the target T1, Albumin. In words: Binding affinity to human serum albumin intensity at 5 uM by fluorescence based drug displacement assay in presence of dansyl sarcosine.
The target of data set [5] is T1, Albumin. In words: Binding affinity to human serum albumin intensity at 5 uM by fluorescence based drug displacement assay in presence of dansyl amide.
Data set [6] concerns the target T1, Albumin. In words: Binding affinity to 45 uM human serum albumin assessed as fluorescence distribution at 2.5 uM. In kind it is ADME.
Data set [7] addresses T1, Albumin. In words: Binding affinity to 15 uM human serum albumin assessed as fluorescence distribution at 2.5 uM. In kind it is ADME.

T1 sequence (P02768 whole entry): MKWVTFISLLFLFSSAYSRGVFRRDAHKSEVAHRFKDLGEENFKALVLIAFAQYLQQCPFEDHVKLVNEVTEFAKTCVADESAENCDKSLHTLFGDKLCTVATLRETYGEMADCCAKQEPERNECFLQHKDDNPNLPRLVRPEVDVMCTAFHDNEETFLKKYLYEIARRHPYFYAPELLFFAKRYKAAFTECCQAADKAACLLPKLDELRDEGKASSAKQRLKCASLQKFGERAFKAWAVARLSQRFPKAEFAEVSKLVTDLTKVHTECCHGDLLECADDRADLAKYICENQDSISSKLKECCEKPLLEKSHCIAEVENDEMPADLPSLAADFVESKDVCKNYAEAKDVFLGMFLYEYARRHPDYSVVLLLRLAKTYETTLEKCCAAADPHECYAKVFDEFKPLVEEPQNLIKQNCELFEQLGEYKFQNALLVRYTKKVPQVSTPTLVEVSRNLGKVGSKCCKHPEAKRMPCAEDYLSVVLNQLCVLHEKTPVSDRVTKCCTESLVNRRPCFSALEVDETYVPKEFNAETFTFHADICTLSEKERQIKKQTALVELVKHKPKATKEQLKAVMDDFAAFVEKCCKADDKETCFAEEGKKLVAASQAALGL

For `Cc1nc2ccccc2c(C(=O)OC2CC(C)(C)N(O)C(C)(C)C2)c1O`, the Ka in data set [1] is listed as 9 ×10⁴ /M.

As to `CC1(C)CC(OC(=O)c2cc3cc4c5c(c3oc2=O)CCCN5CCC4)CC(C)(C)N1O`, the values for the Ka in data set [1] and in data set [2] were 5 ×10⁴ /M and 4.8 ×10⁴ /M, respectively. The Activity in data set [3] is listed as 44.6%; in data set [4] it was “Not Active”; in data set [5] it was “Active”; in data set [6] it was 28.1%; in data set [7] it was 2.9%.
